The MIC is the smallest concentration in the dilution series that meets the test's criterion for growth inhibition.

Our source for the pest or weed control, responders and MIC values is patent US4965280A, “Antifungal carbinols” (E. I. Du Pont de Nemours and Company, priority 1989, dated 1990).

For assay [1], the system named is Rhizoctonia solani. As to the kind of experiment: Example K cotton blight. It is filed as in vivo. To be noted: 336 h, 5 kg/ha, read-out: disease control rating, Ex. K. Here is the method: […] Seeds and soil were then inoculated with a mixture of sand, cereal and mycelium of the fungus Rhizoctonia solani, causal agent of cotton blight, and incubated in a growth chamber at 30° C. for 14 days. Disease ratings were then made.

Assay [2] relates to Pyricularia oryzae. Kind of assay: whole plant or invertebrate. To be noted: Pyricularia oryzae, 120 h, read-out: disease control rating, Ex. E, 100 PPM. It is filed as in vivo.
Assay [3] deals with Botrytis cinerea. Kind of assay: Example C bean grey mold. It is filed as in vivo. Conditions: Botrytis cinerea, 24 h, 100 PPM; read-out: disease control rating, Ex. C. An outline of the steps: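 Broad bean seedlings; foliar spray to run-off. Cmpd 100 or 20 ppm in water + 250 ppm TREM 014, acetone 6% v/v final.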
Assay [4] has as its system Candida albicans ATCC 11651. Kind of assay: In vivo systemic Candida infection in mice, primary assay. Conditions: Candida albicans, read-out: % Survival. Further details: species or system Candida albicans; CF-1 female mice. An outline of the steps: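 CF-1 female mice (20 g, 10 per group) were infected IV with 0.2 ml of 1×10^7/ml C. albicans ATCC 11651, then given test compound subcutaneously at 50 or 150 mg/kg/day at 1 and 6 h post-infection and once daily for three more days. Survival was followed for 21 days against infected untreated mice; ≥70% protection at 14 days was scored active.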

Assay [5] has as its system Candida albicans ATCC 11651. As to the kind of experiment: In vitro antifungal MIC, microtiter broth dilution. Conditions: Candida albicans, ATCC11651, 24 h, read-out: MIC values, C. albicans, 30°, 24 hours. In general terms: In broth dilution the organism is exposed to a series of concentrations in liquid medium.
The subject of assay [6] is Pythium aphanadermatum. Kind of assay: Example J cucumber damping off. Conditions: Pythium, 336 h; 5 kg/ha; read-out: disease control rating, Ex. J. It is filed as in vivo. An outline of the steps:
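Seeds and soil were inoculated with a mix of sand, cereal and Pythium aphanadermatum mycelium, the fungus responsible for cucumber damping off. They were kept in a growth chamber at 30° C. for 14 days, and disease was then rated to assess control.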

Assay [7] concerns Rhizoctonia solani. As to the kind of experiment: Example F rice sheath blight. To be noted: Rhizoctonia solani, 144 h, 100 PPM; read-out: disease control rating, Ex. F. It is filed as in vivo. In a few lines: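 Spray to run-off on rice seedlings; test suspension 100 or 20 ppm compound in water + 250 ppm TREM 014 surfactant, acetone 6% final volume.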
For assay [8], the system named is Sclerotium rolfsii. Kind of assay: Example M southern blight. The format is in vivo. Conditions: Agroathelia rolfsii, 336 h; 5 kg/ha; read-out: disease control rating, Ex. M. The method, then: […] Seeds and soil were then inoculated with a mixture of sand, cereal and mycelium of the fungus Sclerotium rolfsii, causal agent of sourthern blight, and incubated in a growth chamber at 30° C. for 14 days. Disease ratings were then made.

The subject of assay [9] is Erysiphe graminis f. sp. tritici. Kind of assay: Example D wheat powdery mildew. It is filed as in vivo. Conditions: Blumeria graminis, 144 h; 100 PPM; read-out: disease control rating, Ex. D. An outline of the steps:
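Spray to run-off on wheat seedlings; test suspension 100 or 20 ppm compound, acetone 6% v/v, 250 ppm polyhydric alcohol ester surfactant in water.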

In assay [10] the test system is Plasmorpara viticola. As to the kind of experiment: Example I grape downy mildew. The format is in vivo. To be noted: read-out: disease control rating, Ex. I. An outline of the steps: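 First, each compound is taken up in acetone amounting to 6% of the final volume. It is then suspended in purified water containing 250 ppm of the polyhydric alcohol ester surfactant TREM 014, at 100 or 20 ppm. Finally, the suspension is sprayed onto grape seedlings until run-off.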

Assay [11] deals with Puccinia recondita. As to the kind of experiment: Example G wheat leaf rust. The format is in vivo. Conditions: 100 PPM, read-out: disease control rating, Ex. G.
Assay [12] deals with Cercosporidium personatum. Kind of assay: Example B Peanut Late Leafspot. It is filed as in vivo. Conditions: Nothopassalora personata; 100 PPM; read-out: disease control rating, Ex. B. In a few lines: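 Foliar spray on peanut seedlings, to run-off; test rates 100 or 20 ppm. Formulation: acetone at 6% of final volume, water with 250 ppm polyhydric alcohol ester surfactant.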

Assay [13] deals with Phytophthora infestans. As to the kind of experiment: whole plant or invertebrate. To be noted: Phytophthora infestans, in Solanum lycopersicum, read-out: disease control rating, Ex. H, 100 PPM. It is filed as in vivo.
Assay [14] concerns Venturia inaequalis. Kind of assay: Example A apple scab. The format is in vivo. To be noted: 100 PPM, read-out: disease control rating, Ex. A. In a few lines:
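Acetone solution (6% of final vol.) → suspension at 100 or 20 ppm in water + 250 ppm TREM 014 surfactant; sprayed to run-off on apple seedlings.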

For assay [15], the system named is Fusarium oxysporum f. sp. cucumerinum. Kind of assay: Example L cucumber wilt. Conditions: 336 h, 5 kg/ha, read-out: disease control rating, Ex. L. The format is in vivo. Here is the method:
[…] Seeds and soil were then inoculated with a mixture of sand, cereal and mycelium of the fungus Fusarium oxysporum f. sp. cucumerinum, causal agent of cucumber wilt, and incubated in a growth chamber at 30° C. for 14 days. Disease ratings were then made.

Assay [16] relates to Aspergillus fumigatus ATCC 28214. As to the kind of experiment: In vitro antifungal MIC, microtiter broth dilution. Conditions: Aspergillus fumigatus, ATCC28214, 24 h, read-out: MIC values, A. fumigatus, 30°, 24 hours.
Setting [17] is: ATCC11651, 168 h, 150 mg/kg per day, day 7.
Where [18] appears, read: ATCC11651, 336 h, 150 mg/kg per day, day 14.
The mark [19] stands for this setting: ATCC11651, 504 h, 150 mg/kg per day, day 21.

Converted amounts (≈) assume the structure as drawn. Like-named read-outs stand apart in the source and are kept apart here.

In the case of `C=C(c1cccc2ccccc12)C(O)(Cn1cncn1)c1ccc(F)cc1` (stereo not drawn) [Example 208], the pest or weed control at 5000 g/ha in [1], in [6], in [8] and in assay [15] was 0% throughout. Further, the pest or weed control at 100 ppm amounted to 4% in [2]; 83% in assay [3]; 61% in [7]; 76% in assay [9]; 74% in assay [10]; 97% in assay [11]. The pest or weed control at 100 ppm was determined as 37% in assay [12], 0% in assay [13] and 84% in assay [14]. For the same molecule, the responders at 150 mg/kg in [4] (setting [17]), in assay [4] (setting [18]) and in assay [4] (setting [19]) was 0% in each case. Further, the values for the MIC in assay [5] and in [16] were 1.6 µg/mL (≈ 4.45 µM) and 50 µg/mL (≈ 139 µM), respectively.
With `C=C(c1ccc(F)cc1)C(Cn1cncn1)(OC)c1ccc(F)cc1` (stereo not drawn) [Example 359], the pest or weed control at 5000 g/ha in assay [1], in [6], in [8] and in assay [15] was 0% in each case. Also, the pest or weed control at 100 ppm was determined as 88% in [2]; 83% in assay [3]; 62% in assay [7]; 95% in [9]; 0% in assay [10]; 100% in assay [11]. The results for the pest or weed control at 100 ppm in assay [12], in assay [13] and in assay [14] were 100%, 0% and 72%, respectively. The responders at 150 mg/kg in [4] (setting [17]) came out at 100%; in [4] (setting [18]), 80%; in [4] (setting [19]) it was 80%. Further, the MIC was 0.4 µg/mL (≈ 1.17 µM) in assay [5] and 50 µg/mL (≈ 146 µM) in assay [16].
With `C=CCOC(Cn1cncn1)(C(=C)c1ccc(F)cc1)c1ccc(F)cc1` (stereo not drawn) [Example 360], the pest or weed control at 5000 g/ha in [1], in [6], in assay [8] and in assay [15] was 0% throughout. For the same molecule, the pest or weed control at 100 ppm in assay [2] was determined as 74%; in [3] it was 71%; in [7] it was 49%; in [9] it was 86%; in [10], 0%; in assay [11], 93%. The pest or weed control at 100 ppm in [12] is 100%; in assay [13] it was 0%; in [14], 88%. Also, the responders at 150 mg/kg came to 100% in assay [4] (setting [17]), 60% in assay [4] (setting [18]) and 40% in assay [4] (setting [19]). The MIC is 0.8 µg/mL (≈ 2.18 µM) in assay [5] and 100 µg/mL (≈ 272 µM) in assay [16].
As to `C=C(c1ccc(F)cc1)C(Cn1cncn1)(OC(=O)NC)c1ccc(F)cc1` (stereo not drawn) [Example 363], the pest or weed control at 5000 g/ha in assay [1], in assay [6], in [8] and in assay [15] was 0% in each case. Also, the pest or weed control at 100 ppm in assay [2] is 0%; in assay [3], 92%; in assay [7], 0%; in assay [9] it was 28%; in [10] it was 0%; in [11], 38%. Moreover, the figures for the pest or weed control at 100 ppm in assay [12], in [13] and in [14] were 49%, 0% and 0%, respectively. The responders at 150 mg/kg is 10% in [4] (ATCC11651, 168 h); 0% in assay [4] (ATCC11651, 336 h); 0% in [4] (ATCC11651, 504 h). The MIC in assay [5] and in assay [16] was 100 µg/mL (≈ 260 µM) in each case.
As for `C=C(CN(C)C)C(O)(Cn1cncn1)c1ccc(Cl)cc1Cl` (stereo not drawn) [Example 453], the pest or weed control at 5000 g/ha in [1], in [6], in [8] and in assay [15] was 0% each time. Also, the pest or weed control at 100 ppm in assay [2] came to 0%; in assay [3], 75%; in assay [7] it was 0%; in [9] it was 94%; in assay [10] it was 0%; in assay [11] it was 100%. In addition, the results for the pest or weed control at 100 ppm in assay [12], in assay [13] and in [14] were 32%, 0% and 55%, respectively. Also, the responders at 150 mg/kg in assay [4] (setting [17]) came to 60%; in assay [4] (setting [18]) it was 40%; in [4] (setting [19]), 30%. The MIC in [5] was 1.6 µg/mL (≈ 4.69 µM); in assay [16] it was greater than 100 µg/mL.
As to `C=C(c1ccc(F)cc1)C(O)(Cn1cncn1)c1ccccc1Cl` (stereo not drawn) [Example 646], the pest or weed control at 5000 g/ha in [1] was 0%; in [6], 100%; in assay [8], 0%; in [15], 0%. Also, the pest or weed control at 100 ppm in assay [2] stood at 97%; in assay [3], 95%; in [7], 61%; in [9], 98%; in [10] it was 99%; in assay [11], 100%. The figures for the pest or weed control at 100 ppm in [12], in assay [13] and in [14] were 100%, 0% and 100%, respectively. Moreover, the results for the responders at 150 mg/kg in [4] (setting [17]), in assay [4] (setting [18]) and in [4] (setting [19]) were 100%, 100% and 70%, respectively. Besides, the minimal inhibitory concentration (MIC) in assay [5] worked out at 0.03 µg/mL (≈ 0.0873 µM); in [16] it was 0.4 µg/mL (≈ 1.16 µM).
